How the values were obtained:
Conditions in all cases: 48 h
SEM cells [1] = test: AUC of viability dose-response curve (% viability x log10 dose units); higher = less sensitive
In short: (§1)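 Viability of medium-adapted leukemia cells was measured by CellTiter-Glo One luminescence after 48 h at 37°C with library compounds in DMSO. Doses were 11 threefold steps from 47 μM to 0.79 nM, in 1536-well plates at 500 or 1000 cells/well. Signals were normalised per plate to DMSO and cell-free wells and fitted with a four-parameter log-logistic model on log10 dose. Area under the curve was integrated by trapezoidal rule, with curves exceeding full viability scaled and failed quality-control curves removed.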

P12-Ichikawa [2] = test: as above
In short: as §1

NOMO1 [3] = test: as above
In short: as §1

SEM cells [4] = test: cell viability relative to DMSO control; higher = less cytotoxic
In short: (§2)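 In 1536-well plates, 5 μl of leukemia cells were seeded per well: 500 cells/well for NOMO1 or SEM and 1000 cells/well for P12-Ichikawa. Each line had first been adapted for at least four passages in each medium. Library compounds in DMSO were pin-dosed at 11 threefold concentrations between 47 μM and 0.79 nM, and CellTiter-Glo One luminescence was read after 48 h at 37°C. Viability is a per-plate percentage relative to DMSO wells, with cell-free wells as background.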

P12-Ichikawa [5] = test: as above
In short: as §2

NOMO1 [6] = test: as above
In short: as §2

COC1(C[S+]([O-])c2ccccc2)CCN(CCc2c[nH]c3ccc(F)cc23)CC1 (stereo not given)
AUC of viability dose-response curve
Conditions	NOMO1 [3]	P12-Ichikawa [2]	SEM cells [1]
HPLM + 10% dialyzed FBS	418	455	445
RPMI 5 mM glucose + 10% FBS	469	408	471
RPMI 5 mM glucose + 10% dialyzed FBS	460	451	456

cell viability [%]
Conditions	NOMO1 [6]	P12-Ichikawa [5]	SEM cells [4]
HPLM + 10% dialyzed FBS, 0.000781 µM	–	112	119
HPLM + 10% dialyzed FBS, 0.00234 µM	–	105	119
HPLM + 10% dialyzed FBS, 0.00702 µM	–	112	122
HPLM + 10% dialyzed FBS, 0.0211 µM	–	114	104
HPLM + 10% dialyzed FBS, 0.0632 µM	–	113	123
HPLM + 10% dialyzed FBS, 0.19 µM	–	115	111
HPLM + 10% dialyzed FBS, 0.569 µM	–	109	109
HPLM + 10% dialyzed FBS, 1.71 µM	–	96.6	100
HPLM + 10% dialyzed FBS, 5.12 µM	–	102	122
HPLM + 10% dialyzed FBS, 15.4 µM	–	99.6	110
HPLM + 10% dialyzed FBS, 46.1 µM	–	93.2	93.5
RPMI 5 mM glucose + 10% FBS, 0.000781 µM	107	117	120
RPMI 5 mM glucose + 10% FBS, 0.00234 µM	113	116	109
RPMI 5 mM glucose + 10% FBS, 0.00702 µM	106	133	117
RPMI 5 mM glucose + 10% FBS, 0.0211 µM	106	148	106
RPMI 5 mM glucose + 10% FBS, 0.0632 µM	117	140	119
RPMI 5 mM glucose + 10% FBS, 0.19 µM	117	99.9	113
RPMI 5 mM glucose + 10% FBS, 0.569 µM	116	78.9	116
RPMI 5 mM glucose + 10% FBS, 1.71 µM	112	78.7	111
RPMI 5 mM glucose + 10% FBS, 5.12 µM	113	115	117
RPMI 5 mM glucose + 10% FBS, 15.4 µM	103	106	110
RPMI 5 mM glucose + 10% FBS, 46.1 µM	96.2	97.6	95.6
RPMI 5 mM glucose + 10% dialyzed FBS, 0.000781 µM	111	104	–
RPMI 5 mM glucose + 10% dialyzed FBS, 0.00234 µM	99.8	111	–
RPMI 5 mM glucose + 10% dialyzed FBS, 0.00702 µM	115	114	–
RPMI 5 mM glucose + 10% dialyzed FBS, 0.0211 µM	102	116	–
RPMI 5 mM glucose + 10% dialyzed FBS, 0.0632 µM	112	109	–
RPMI 5 mM glucose + 10% dialyzed FBS, 0.19 µM	111	105	–
RPMI 5 mM glucose + 10% dialyzed FBS, 0.569 µM	110	103	–
RPMI 5 mM glucose + 10% dialyzed FBS, 1.71 µM	99.8	98.4	–
RPMI 5 mM glucose + 10% dialyzed FBS, 5.12 µM	98.3	105	–
RPMI 5 mM glucose + 10% dialyzed FBS, 15.4 µM	103	99.9	–
RPMI 5 mM glucose + 10% dialyzed FBS, 46.1 µM	90.3	85.4	–

CC(C)C[C@H](NC(=O)[C@H](Cc1ccccc1)NC(=O)c1cnccn1)B(O)O
AUC of viability dose-response curve
Conditions	NOMO1 [3]	P12-Ichikawa [2]	SEM cells [1]
HPLM + 10% dialyzed FBS	182	173	138
RPMI 5 mM glucose + 10% FBS	171	173	147
RPMI 5 mM glucose + 10% dialyzed FBS	181	171	129

cell viability [%]
Conditions	NOMO1 [6]	P12-Ichikawa [5]	SEM cells [4]
HPLM + 10% dialyzed FBS, 0.000781 µM	99.7	96.4	82.8
HPLM + 10% dialyzed FBS, 0.00234 µM	106	92.9	88.2
HPLM + 10% dialyzed FBS, 0.00702 µM	108	106	95.9
HPLM + 10% dialyzed FBS, 0.0211 µM	119	106	46.6
HPLM + 10% dialyzed FBS, 0.0632 µM	21.6	4.77	5.6
HPLM + 10% dialyzed FBS, 0.19 µM	3.62	2.92	4.11
HPLM + 10% dialyzed FBS, 0.569 µM	4.25	2.65	3.83
HPLM + 10% dialyzed FBS, 1.71 µM	2.64	2.46	3.37
HPLM + 10% dialyzed FBS, 5.12 µM	2.22	1.35	2.58
HPLM + 10% dialyzed FBS, 15.4 µM	1.08	0.316	1.95
HPLM + 10% dialyzed FBS, 46.1 µM	0.274	-0.93	1.04
RPMI 5 mM glucose + 10% FBS, 0.000781 µM	83.7	93.4	90.9
RPMI 5 mM glucose + 10% FBS, 0.00234 µM	91.4	103	102
RPMI 5 mM glucose + 10% FBS, 0.00702 µM	99	107	113
RPMI 5 mM glucose + 10% FBS, 0.0211 µM	96.6	101	38.4
RPMI 5 mM glucose + 10% FBS, 0.0632 µM	21.6	4.71	6.07
RPMI 5 mM glucose + 10% FBS, 0.19 µM	6.12	2.56	3.74
RPMI 5 mM glucose + 10% FBS, 0.569 µM	2.91	2.17	3.71
RPMI 5 mM glucose + 10% FBS, 1.71 µM	1.66	1.91	3.19
RPMI 5 mM glucose + 10% FBS, 5.12 µM	1.61	1.36	2.6
RPMI 5 mM glucose + 10% FBS, 15.4 µM	1.02	0.651	1.56
RPMI 5 mM glucose + 10% FBS, 46.1 µM	-0.312	-0.626	0.977
RPMI 5 mM glucose + 10% dialyzed FBS, 0.000781 µM	94.5	88.6	90.4
RPMI 5 mM glucose + 10% dialyzed FBS, 0.00234 µM	101	105	84.7
RPMI 5 mM glucose + 10% dialyzed FBS, 0.00702 µM	98.4	99	84.5
RPMI 5 mM glucose + 10% dialyzed FBS, 0.0211 µM	116	102	31.1
RPMI 5 mM glucose + 10% dialyzed FBS, 0.0632 µM	17	4.76	6.17
RPMI 5 mM glucose + 10% dialyzed FBS, 0.19 µM	5	2.71	4.26
RPMI 5 mM glucose + 10% dialyzed FBS, 0.569 µM	3.79	2.62	4.12
RPMI 5 mM glucose + 10% dialyzed FBS, 1.71 µM	3	1.7	3.78
RPMI 5 mM glucose + 10% dialyzed FBS, 5.12 µM	1.75	1.34	3.01
RPMI 5 mM glucose + 10% dialyzed FBS, 15.4 µM	1.72	0.782	2.1
RPMI 5 mM glucose + 10% dialyzed FBS, 46.1 µM	-0.0281	-0.254	1.1

CC(C)[C@H](CO)Nc1nc(Nc2cccc(Cl)c2)c2ncn(C(C)C)c2n1
AUC of viability dose-response curve
Conditions	NOMO1 [3]	P12-Ichikawa [2]	SEM cells [1]
HPLM + 10% dialyzed FBS	304	385	316
RPMI 5 mM glucose + 10% FBS	342	404	255
RPMI 5 mM glucose + 10% dialyzed FBS	351	387	284

cell viability [%]
Conditions	NOMO1 [6]	P12-Ichikawa [5]	SEM cells [4]
HPLM + 10% dialyzed FBS, 0.000781 µM	–	98.7	88.8
HPLM + 10% dialyzed FBS, 0.00234 µM	–	112	88.2
HPLM + 10% dialyzed FBS, 0.00702 µM	–	113	97.6
HPLM + 10% dialyzed FBS, 0.0211 µM	–	115	101
HPLM + 10% dialyzed FBS, 0.0632 µM	–	113	110
HPLM + 10% dialyzed FBS, 0.19 µM	–	112	99.4
HPLM + 10% dialyzed FBS, 0.569 µM	–	107	69.8
HPLM + 10% dialyzed FBS, 1.71 µM	–	104	49.4
HPLM + 10% dialyzed FBS, 5.12 µM	–	45.9	3.37
HPLM + 10% dialyzed FBS, 15.4 µM	–	26.6	1.22
HPLM + 10% dialyzed FBS, 46.1 µM	–	8.74	2.26
RPMI 5 mM glucose + 10% FBS, 0.000781 µM	–	110	86.7
RPMI 5 mM glucose + 10% FBS, 0.00234 µM	–	109	112
RPMI 5 mM glucose + 10% FBS, 0.00702 µM	–	120	101
RPMI 5 mM glucose + 10% FBS, 0.0211 µM	–	124	95.4
RPMI 5 mM glucose + 10% FBS, 0.0632 µM	–	125	71
RPMI 5 mM glucose + 10% FBS, 0.19 µM	–	115	86.4
RPMI 5 mM glucose + 10% FBS, 0.569 µM	–	118	21.6
RPMI 5 mM glucose + 10% FBS, 1.71 µM	–	118	4.3
RPMI 5 mM glucose + 10% FBS, 5.12 µM	–	76	1.34
RPMI 5 mM glucose + 10% FBS, 15.4 µM	–	42	0.473
RPMI 5 mM glucose + 10% FBS, 46.1 µM	–	10.2	1.1
RPMI 5 mM glucose + 10% dialyzed FBS, 0.000781 µM	111	97.7	98.6
RPMI 5 mM glucose + 10% dialyzed FBS, 0.00234 µM	124	110	107
RPMI 5 mM glucose + 10% dialyzed FBS, 0.00702 µM	127	112	91.5
RPMI 5 mM glucose + 10% dialyzed FBS, 0.0211 µM	125	117	104
RPMI 5 mM glucose + 10% dialyzed FBS, 0.0632 µM	124	115	106
RPMI 5 mM glucose + 10% dialyzed FBS, 0.19 µM	112	106	93.5
RPMI 5 mM glucose + 10% dialyzed FBS, 0.569 µM	123	93.4	35.7
RPMI 5 mM glucose + 10% dialyzed FBS, 1.71 µM	84.2	102	18.9
RPMI 5 mM glucose + 10% dialyzed FBS, 5.12 µM	12.6	58.5	1.89
RPMI 5 mM glucose + 10% dialyzed FBS, 15.4 µM	6.44	18.2	0.704
RPMI 5 mM glucose + 10% dialyzed FBS, 46.1 µM	3.06	4.68	1.74

Source: the supplement of paper PMC11451515
